Measurements: patent US11253540B2, “Composition including glycosaminoglycan derivative and chemokine receptor activity regulator” (Seikagaku Corporation, priority 2015, dated 2022)

Assays:
laser-induced CNV [1] = test: Laser-induced CNV models of rat: CNV area, flat mounts prepared 4 days after preparation of models; type: in vivo; parameters: key to Test results, CNV area vs. CS, t-test: N.S.: Not Significant (vs. CS), t-test; details: Test Example 19; for CNV area, mean: 5 μL/eye intravitreal once, flat mounts after 4 days, Compound 3 10 mg/ml in PBS, CS (about 40,000) 10 mg/mL in PBS
Description: BN/CrlCrlj rats (male, CHARLES RIVER LABORATORIES JAPAN, INC.) were used for the preparation of animal models. Under general anesthesia by intraperitoneal administration of an anesthetic mixture (saline:Somnopentyl=9:1) (about 2 mL/body), Mydrin-P ophthalmic solution was topically instilled to cause mydriasis in both eyes. The retina around the optic disk was irradiated with a laser beam to induce CNV. Used for the laser beam irradiation were SCOPISOL solution for eye, Fundus 5.4 mm Laser Lens, a laser photocoagulation device and a slit lamp illumination system. Immediately after the laser beam irradiation, 5 μL/eye of the test substance was administered once into the vitreous bodies of both eyes. Immediately after the administration, one drop of an antimicrobial drug (VEGAMOX Ophthalmic Solution 0.5%) was instilled.
After 10 days from the preparation, the models were euthanized with CO2. The eyeballs were extracted and immersed in 10% neutral buffered solution of formalin (room temperature, about 60 minutes). Eye cups were prepared, washed with PBS, dehydrated with methanol and immersed in PBS containing 1% bovine serum albumin and 0.5% Triton X-100 (room temperature, about 60 minutes). The retina was removed, and 60 μL of 0.5% fluorescein Griffonia simplicifolia lectin I, FITC-conjugate was added to the eye cups, and the eye cups were allowed to stand (under refrigeration, overnight). By this treatment, vascular endothelial cells of CNV were fluorescently stained with FITC-lectin. Eight slits were made radially in each of the eye cups to thereby obtain flat mounts. These flat mounts were washed twice with PBS containing 0.1% Triton X-100 and embedded on a glass slide with about 120 μL of Prolong Gold Antifade Reagent.
A fluorescence image of CNV in the flat mount embedded on a glass slide was taken with a fluorescent microscope. The area of CNV was measured using an image processing software (Image pro exp).
Laser-induced CNV models of rat were prepared, and neovascularization inhibitory effect was examined with respect to intravitreal administration of Compound 3.
Substantially the same procedure as in ? Method ? for Test Example 1 was repeated, except that flat mounts were prepared 4 days after the preparation of models, instead of 10 days after the preparation of models in Test Example 1.
The areas of CNV in each group were analyzed by a test (t-test) for unpaired two groups. The significance level was 5% on both sides.

laser-induced CNV [2] = test: Laser-induced CNV models of rat: CNV area in flat mounts 10 days after intravitreal administration; type: in vivo; parameters: key to Test results, CNV area vs. DMSO, t-test: **: P < 0.01 (vs. DMSO), t-test; #: P < 0.05 (vs. Ki19003), t-test; N.S.: Not Significant (vs. DMSO), t-test; key to Test results, CNV area vs. DMSO, Dunnett's test: *: P < 0.05 (vs. DMSO), Dunnett's test; N.S.: Not Significant (vs. DMSO), Dunnett's test; #: P < 0.05; ##: P < 0.01 (vs. GW766994), Dunnett's test; key to Test results, CNV area vs. PBS, t-test: *: P < 0.05 (vs. PBS), t-test; N.S.: Not Significant (vs. PBS), t-test; CNV area, mean: unit not given here; details: for CNV area, mean: 5 μL/eye intravitreal once, 10 days
Description: Laser-induced CNV models of rat were prepared, and neovascularization inhibitory effect was examined with respect to intravitreal administration of Composition 10 or Ki19003. BN/CrlCrlj rats (male, CHARLES RIVER LABORATORIES JAPAN, INC.) were used for the preparation of animal models. […] The retina around the optic disk was irradiated with a laser beam to induce CNV. Used for the laser beam irradiation were SCOPISOL solution for eye, Fundus 5.4 mm Laser Lens, a laser photocoagulation device and a slit lamp illumination system. Immediately after the laser beam irradiation, 5 μL/eye of the test substance was administered once into the vitreous bodies of both eyes. Immediately after the administration, one drop of an antimicrobial drug ([…] Ophthalmic Solution 0.5%) was instilled. After 10 days from the preparation, the models were euthanized with CO2. The eyeballs were extracted and immersed in 10% neutral buffered solution of formalin (room temperature, about 60 minutes). Eye cups were prepared, washed with PBS, dehydrated with methanol and immersed in PBS containing 1% bovine serum albumin and 0.5% Triton X-100 (room temperature, about 60 minutes). The retina was removed, and 60 μL of 0.5% fluorescein Griffonia simplicifolia lectin I, FITC-conjugate was added to the eye cups, and the eye cups were allowed to stand (under refrigeration, overnight). By this treatment, vascular endothelial cells of CNV were fluorescently stained with FITC-lectin. Eight slits were made radially in each of the eye cups to thereby obtain flat mounts. These flat mounts were washed twice with PBS containing 0.1% Triton X-100 and embedded on a glass slide with about 120 μL of Prolong Gold Antifade Reagent. A fluorescence image of CNV in the flat mount embedded on a glass slide was taken with a fluorescent microscope. The area of CNV was measured using an image processing software (Image pro exp). The areas of CNV in each group were analyzed by a test (t-test) for unpaired two groups. The significance level was 5% on both sides.

laser-induced CNV [3] = details: intravitreal administration, laser-induced CNV model of mouse; cited from earlier work

5β-Cholanic Acid-Introduced CS [Compound 3]
Test results, CNV area vs. CS, t-test (laser-induced CNV [1]): N.S. | inhibitory effects of CNV, as compared to CS (laser-induced CNV [1]): did not show significant inhibitory effects of CNV | CNV area, mean (laser-induced CNV [1]): 51925

Cc1ccc(S(=O)(=O)NC(=O)N2CCC(N3CCC(Oc4ccc(Cl)c(Cl)c4)CC3)CC2)cc1 [AZD3778]
Test results, CNV area vs. DMSO, t-test (laser-induced CNV [2]; Test Example 8): N.S. | CNV area, mean (laser-induced CNV [2]; Test Example 8, Composition 35 containing 0.1 mg/mL of AZD3778, AZD3778 0.1 mg/mL in DMSO): 43935

NC(=O)c1ccc(CNC(=O)NC[C@H]2CN(Cc3ccc(Cl)c(Cl)c3)CCO2)cc1 [GW766994]
inhibitory effects of CNV, as compared to DMSO (laser-induced CNV [2]; GW766994 dissolved in DMSO, 2 mg/mL and 1.5 mg/mL (Test Examples 6 and 10), both concentrations): did not have inhibitory effects of CNV | Test results, CNV area vs. DMSO, t-test (laser-induced CNV [2]; Test Example 6): N.S. | CNV area, mean (laser-induced CNV [2]; Test Example 6, Composition 33 containing 2 mg/mL of GW766994, GW766994 2 mg/mL in DMSO): 41548 | Test results, CNV area vs. DMSO, Dunnett's test (laser-induced CNV [2]; Test Example 10): N.S. | CNV area, mean (laser-induced CNV [2]; Test Example 10, Composition 6 containing 0.71, Composition 7 0.83 mg/mL of GW766994, GW766994 1.5 mg/mL in DMSO): 30795

NC(N)=NCCC[C@H](NC(=O)[C@@H]1Cc2ccccc2CN1C(=O)CCC(=O)c1ccccc1)C(=O)NCC1CCCCC1 [PS372424]
CNV area, mean (laser-induced CNV [2]; Test Example 15, Composition 38 containing 0.091 mg/mL of PS372424, PS372424 0.1 mg/mL in DMSO): 36842

Cc1ccc2c(c1)C1(CCN(CCc3nc(-c4ccccc4)oc3C)CC1)OC(=O)N2 [RS504393]
Test results, CNV area vs. DMSO, t-test (laser-induced CNV [2]; Test Example 14): N.S. | CNV area, mean (laser-induced CNV [2]; Test Example 14, Composition 37 containing 0.01 mg/mL of RS504393, RS504393 0.01 mg/mL in DMSO): 44137

O=C(Nc1ccc([N+](=O)[O-])cc1O)Nc1ccccc1Br [SB225002]
Test results, CNV area vs. DMSO, t-test (laser-induced CNV [2]; Test Example 5): N.S. | CNV area, mean (laser-induced CNV [2]; Test Example 5, Composition 31 containing 0.018, Composition 32 0.02 mg/mL of SB225002, SB225002 0.02 mg/mL in DMSO): 43121

COC(=O)[C@H](Cc1ccc([N+](=O)[O-])cc1)NC(=O)c1cccc2ccccc12 [SB328437]
CNV area, mean (laser-induced CNV [2]; Test Example 4, Compositions 14, 15, 16 containing 1.33, 1.67, 3.33 mg/mL of SB328437, SB328437 2 mg/mL in DMSO): 26040 | Test results, CNV area vs. DMSO, t-test (laser-induced CNV [2]; Test Example 9): * (P < 0.05) | CNV area, mean (laser-induced CNV [2]; Test Example 9, Composition 36 containing 1 mg/mL of SB328437, SB328437 1 mg/mL in DMSO): 38911

chondroitin sulfate [CS]
CNV area, mean (laser-induced CNV [1]): 50236 | Test results, CNV area vs. PBS, t-test (laser-induced CNV [2]; Test Example 18): N.S. | CNV area, mean (laser-induced CNV [2]; Test Example 18, CS (average molecular weight about 140,000) 20 mg/mL in PBS): 30462 | inhibitory effects of CNV, as compared to PBS (laser-induced CNV [2]; Test Example 18, CS 20 mg/mL): did not show significant inhibitory effects of CNV

heparan sulfate
suppression of CNV (laser-induced CNV [3]): suppressed CNV

heparin
suppression of CNV (laser-induced CNV [3]): suppressed CNV
